Here are results for 23 compounds from patent publication US20230322721A1 (OSLO UNIVERSITETSSYKEHUS HF, priority 2020, published 2023).

Broadly, the IC50 is the concentration that gives 50% inhibition. One may read the microsomal CLint as a measure of how fast metabolising enzymes remove a compound, apart from limits set by blood flow. A lower microsomal CLint goes with greater metabolic stability.

For one data set, the target named is TNKS2 (Homo sapiens (Human), UniProt Q9H2K2). The data set can be described thus: Biochemical IC50 TNKS2. An excerpt: (§1) XLfit (idbs) was used to determine the IC50-values in inhibition experiments. The following formula was chosen to fit the data points (Langmuir Binding Isotherm): fit=((A+(B*x))+(((C−B)*(1−exp((−1*D)*x)))/D)), res=(y−fit).
A further data set has as its system HEK293. Briefly: Cellular IC50 HEK293. The data set is classed as cell-based.
Description: as §1

Data set [1] in a line: Metabolic stability in mouse liver microsomes (MLM). The format is in vitro ADME. Particulars: pH 7.4, 1 μM compound, 0.5 mg/ml microsomal protein, 37° C. Here is the method:
(§2) Metabolic stability was investigated in mouse liver microsomes (MLM) and in human liver microsomes (HLM): […] Incubations were performed at 37° C. Control incubations with reference substances were included for each experiment. […] After the last time point, the quench plates were mixed thoroughly and centrifuged for 15 minutes at 3700 rpm and 10° C. (Eppendorf 5804R). The supernatant was transferred to new 96 well plates and subjected to LCMS analysis. The disappearance of the parent compound was determined.
Background: Liver microsomes are vesicles of endoplasmic reticulum, rich in cytochrome P450 enzymes.

A short description of data set [2]: Metabolic stability in human liver microsomes (HLM). The format is in vitro ADME. Particulars: pH 7.4, 1 μM compound, 0.5 mg/ml microsomal protein, 37° C. The procedure:
as §2

Setting [3] is: read-out: Biochemical IC50 TNKS2.
Where [4] appears, read: Homo sapiens, HEK293; read-out: Cellular IC50 HEK293.
Where [5] appears, read: Homo sapiens, HEK293; read-out: Cellular IC50 HEK 293.
[6] abbreviates: Homo sapiens, HEK293, read-out: Cellular IC50 HEK 293.
Where [7] appears, read: Homo sapiens, HEK293, read-out: Cellular IC50 HEK293.

Molecules are shown by their SMILES. Like-named read-outs stand apart in the source and are kept apart here.

Sequence of TNKS2 (Q9H2K2 whole entry): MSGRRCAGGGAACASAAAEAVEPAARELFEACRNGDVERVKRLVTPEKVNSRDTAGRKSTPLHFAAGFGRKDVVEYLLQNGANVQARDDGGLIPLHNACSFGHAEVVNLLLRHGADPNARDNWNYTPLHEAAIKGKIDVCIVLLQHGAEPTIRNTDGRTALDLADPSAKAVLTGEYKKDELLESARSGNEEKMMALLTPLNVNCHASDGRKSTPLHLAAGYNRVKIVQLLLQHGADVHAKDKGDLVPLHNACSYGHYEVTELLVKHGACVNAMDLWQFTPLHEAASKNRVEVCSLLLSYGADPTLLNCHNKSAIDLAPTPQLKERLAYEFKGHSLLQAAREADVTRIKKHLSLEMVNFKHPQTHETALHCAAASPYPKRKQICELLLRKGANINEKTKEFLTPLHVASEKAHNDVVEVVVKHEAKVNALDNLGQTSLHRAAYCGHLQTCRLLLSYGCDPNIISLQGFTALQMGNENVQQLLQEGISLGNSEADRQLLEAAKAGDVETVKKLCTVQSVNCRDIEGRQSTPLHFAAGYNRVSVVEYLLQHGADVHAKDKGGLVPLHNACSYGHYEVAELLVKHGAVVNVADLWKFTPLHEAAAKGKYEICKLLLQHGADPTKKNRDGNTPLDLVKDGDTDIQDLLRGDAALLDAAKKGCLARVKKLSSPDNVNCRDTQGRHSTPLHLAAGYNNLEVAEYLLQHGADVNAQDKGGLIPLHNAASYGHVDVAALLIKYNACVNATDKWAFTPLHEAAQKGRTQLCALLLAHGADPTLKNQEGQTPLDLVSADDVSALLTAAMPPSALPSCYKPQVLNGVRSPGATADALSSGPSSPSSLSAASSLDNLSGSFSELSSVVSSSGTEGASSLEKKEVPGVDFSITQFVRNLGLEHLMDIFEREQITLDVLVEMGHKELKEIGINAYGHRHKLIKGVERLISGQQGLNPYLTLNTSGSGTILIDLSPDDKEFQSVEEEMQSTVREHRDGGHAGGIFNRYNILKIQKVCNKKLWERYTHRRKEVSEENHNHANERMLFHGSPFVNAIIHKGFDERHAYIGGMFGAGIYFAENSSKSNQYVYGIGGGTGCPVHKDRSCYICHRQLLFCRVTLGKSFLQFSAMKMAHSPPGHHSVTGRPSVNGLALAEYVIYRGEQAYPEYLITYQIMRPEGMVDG

Take `CCOc1ccc(-c2nnc([C@H]3C[C@H](NC(=O)c4cccc5ncc(O)nc45)C3)n2-c2ccccc2F)nc1` [Example 1, N-((1R,3r)-3-(5-(5-ethoxypyridin-2-yl)-4-(2-fluorophenyl)-4H-1,2,4-triazol-3-yl)cyclobutyl)-3-hydroxyquinoxaline-5-carboxamide]: the IC50 at TNKS2 (setting [3]) is 36 nM; in the data set on HEK293 (setting [4]), 220 nM. The microsomal CLint at 1 μM came to 72 µL/min/mg in data set [1] and 45 µL/min/mg in data set [2]. For the same compound, the figures for the half-life at 1 μM in data set [1] (read-out: MLM t1/2 average) and in data set [2] (read-out: HLM t1/2 average) were 19 min and 31 min, respectively.

Take `CCOc1ccc(-c2nnc([C@H]3C[C@H](NC(=O)c4cccc(C(N)=O)n4)C3)n2-c2ccccc2F)nc1` [Example 7, N-(trans-3-(5-(5-ethoxypyridin-2-yl)-4-(2-fluorophenyl)-4H-1,2,4-triazol-3-yl)cyclobutyl)pyridine-2,6-dicarboxamide]: the IC50 with HEK293 (setting [5]) and with HEK293 (setting [4]) was 70 nM throughout.

In the case of `CCOc1ccc(-c2nnc([C@H]3C[C@H](NC(=O)c4cccc(C(=O)NC)n4)C3)n2-c2ccccc2F)nc1` [Example 8, N2-(trans-3-(5-(5-ethoxypyridin-2-yl)-4-((S)-2-fluorophenyl)-4H-1,2,4-triazol-3-yl)cyclobutyl)-N6-methylpyridine-2,6-dicarboxamide], the IC50 in the data set on HEK293 (setting [5]) and with HEK293 (setting [4]) was 21 nM in each case.

Turning to `CCOc1ccc(-c2nnc([C@H]3C[C@H](NC(=O)c4cccc(C(=O)N(C)C)n4)C3)n2-c2ccccc2F)nc1` [Example 9], the IC50 with HEK293 (setting [5]) amounted to 190 nM; in the data set on HEK293 (setting [4]) it was 187 nM.

Take `CCOc1ccc(-c2nnc([C@H]3C[C@H](NC(=O)c4cccc(C(=O)N5CCC5)n4)C3)n2-c2ccccc2F)nc1` [Example 10, 6-(azetidine-1-carbonyl)-N-(trans-3-(5-(5-ethoxypyridin-2-yl)-4-((S)-2-fluorophenyl)-4H-1,2,4-triazol-3-yl)cyclobutyl)picolinamide]: the IC50 with HEK293 (setting [6]) and in the data set with HEK293 (setting [7]) was 41 nM each time.

`CCOc1ccc(-c2nnc([C@H]3C[C@H](NC(=O)c4cccc(=O)[nH]4)C3)n2-c2ccccc2F)nc1` [Example 11, N-(trans-3-(5-(5-ethoxypyridin-2-yl)-4-(2-fluorophenyl)-4H-1,2,4-triazol-3-yl)cyclobutyl)-6-oxo-1,6-dihydropyridine-2-carboxamide]: the values for the IC50 with HEK293 (setting [5]) and in the data set on HEK293 (setting [4]) were 2800 nM and 2770 nM, respectively.

Regarding `CCOc1ccc(-c2nnc([C@H]3C[C@H](NC(=O)c4cccc5cc(O)ccc45)C3)n2-c2ccccc2F)nc1` [Example 12], the IC50 in the data set on HEK293 (setting [5]) and in the data set with HEK293 (setting [4]) was > 10000 nM each time.

Turning to `CCOc1ccc(-c2nnc([C@H]3C[C@H](NC(=O)c4cccc5[nH]c(=O)ccc45)C3)n2-c2ccccc2F)nc1` [Example 13, N-(trans-3-(5-(5-ethoxypyridin-2-yl)-4-(2-fluorophenyl)-4H-1,2,4-triazol-3-yl)cyclobutyl)-2-oxo-1,2-dihydroquinoline-5-carboxamide], the IC50 with HEK293 (setting [5]) and with HEK293 (setting [4]) was > 10000 nM each time.

Take `CCOc1ccc(-c2nnc([C@H]3C[C@H](NC(=O)c4cccc5c(O)ccnc45)C3)n2-c2ccccc2F)nc1` [Example 14, N-(trans-3-(5-(5-ethoxypyridin-2-yl)-4-(2-fluorophenyl)-4H-1,2,4-triazol-3-yl)cyclobutyl)-4-hydroxyquinoline-8-carboxamide]: the IC50 in the data set with HEK293 (setting [5]) and with HEK293 (setting [4]) was 8.5 nM throughout.

In the case of `CCOc1ccc(-c2nnc([C@H]3C[C@H](NC(=O)c4cccc(O)c4)C3)n2-c2ccccc2F)nc1` [Example 15, N-(trans-3-(5-(5-ethoxypyridin-2-yl)-4-(2-fluorophenyl)-4H-1,2,4-triazol-3-yl)cyclobutyl)-3-hydroxybenzamide], the IC50 in the data set with HEK293 (setting [5]) and with HEK293 (setting [4]) was 130 nM throughout.

Take `CCOc1ccc(-c2nnc([C@H]3C[C@H](NC(=O)c4cccc(S(N)(=O)=O)c4)C3)n2-c2ccccc2F)nc1` [Example 16, N-(trans-3-(5-(5-ethoxypyridin-2-yl)-4-(2-fluorophenyl)-4H-1,2,4-triazol-3-yl)cyclobutyl)-3-sulfamoylbenzamide]: the IC50 in the data set on HEK293 (setting [5]) was found to be 2300 nM; in the data set on HEK293 (setting [4]), 2260 nM.

For `CCOc1ccc(-c2nnc([C@H]3C[C@H](NC(=O)c4ccc[n+]([O-])c4)C3)n2-c2ccccc2F)nc1` [Example 18, 3-((trans-3-(5-(5-ethoxypyridin-2-yl)-4-(2-fluorophenyl)-4H-1,2,4-triazol-3-yl)cyclobutyl)carbamoyl)pyridine 1-oxide], the IC50 in the data set on HEK293 (setting [5]) and in the data set on HEK293 (setting [4]) was > 10000 nM throughout.

In the case of `CCOc1ccc(-c2nnc([C@H]3C[C@H](NC(=O)c4cc[n+]([O-])cc4)C3)n2-c2ccccc2F)nc1` [Example 19, 4-((trans-3-(5-(5-ethoxypyridin-2-yl)-4-(2-fluorophenyl)-4H-1,2,4-triazol-3-yl)cyclobutyl)carbamoyl)pyridine 1-oxide], the IC50 in the data set on HEK293 (setting [5]) and with HEK293 (setting [4]) was 34 nM throughout.

`CCOc1ccc(-c2nnc([C@H]3C[C@H](NC(=O)c4cccc(N)n4)C3)n2-c2ccccc2F)nc1` [Example 20, 6-amino-N-(trans-3-(5-(5-ethoxypyridin-2-yl)-4-(2-fluorophenyl)-4H-1,2,4-triazol-3-yl)cyclobutyl)picolinamide]: the IC50 was determined as 7.2 nM at TNKS2 (setting [3]), 27 nM in the data set with HEK293 (setting [5]) and 27 nM in the data set on HEK293 (setting [4]).

In the case of `CCOc1ccc(-c2nnc([C@H]3C[C@H](NC(=O)c4ccc5cccc(O)c5n4)C3)n2-c2ccccc2F)nc1` [Example 21, N-(trans-3-(5-(5-ethoxypyridin-2-yl)-4-(2-fluorophenyl)-4H-1,2,4-triazol-3-yl)cyclobutyl)-8-hydroxyquinoline-2-carboxamide], the IC50 on TNKS2 (setting [3]) came out at 12.5 nM; in the data set with HEK293 (setting [5]), 72 nM; in the data set on HEK293 (setting [4]), 72 nM.

On to `CCOc1ccc(-c2nnc([C@H]3C[C@H](NC(=O)c4cccc5c(N(C)C)ccnc45)C3)n2-c2ccccc2F)nc1` [Example 22], for which the 50% inhibitory concentration (IC50) at TNKS2 (setting [3]) is 2.1 nM; in the data set on HEK293 (setting [5]) it was 15 nM; in the data set with HEK293 (setting [4]), 15 nM.

Turning to `CCOc1ccc(-c2nnc([C@H]3C[C@H](NC(=O)c4cccc5cc(O)cnc45)C3)n2-c2ccccc2F)nc1` [Example 23, N-(trans-3-(5-(5-ethoxypyridin-2-yl)-4-(2-fluorophenyl)-4H-1,2,4-triazol-3-yl)cyclobutyl)-3-hydroxyquinoline-8-carboxamide], the IC50 on TNKS2 (setting [3]) is 1.3 nM; in the data set with HEK293 (setting [5]) it was 3.6 nM; with HEK293 (setting [4]), 3.6 nM.

Regarding `CCOc1ccc(-c2nnc([C@H]3C[C@H](NC(=O)c4cccc5c4nc(C)c(C)[n+]5[O-])C3)n2-c2ccccc2F)nc1` [Example 24, 5-((trans-3-(5-(5-ethoxypyridin-2-yl)-4-(2-fluorophenyl)-4H-1,2,4-triazol-3-yl)cyclobutyl)carbamoyl)-2,3-dimethylquinoxaline 1-oxide], the IC50 in the data set with HEK293 (setting [6]) and in the data set on HEK293 (setting [7]) was 3.7 nM in each case.

On to `CCOc1ccc(-c2nnc([C@H]3C[C@H](NC(=O)c4cccc5c4ccc[n+]5[O-])C3)n2-c2ccccc2F)nc1` [Example 25, 5-((trans-3-(5-(5-ethoxypyridin-2-yl)-4-(2-fluorophenyl)-4H-1,2,4-triazol-3-yl)cyclobutyl)carbamoyl)quinoline 1-oxide], for which the half-inhibitory concentration (IC50) at TNKS2 worked out at 978 nM; in the data set on HEK293 (setting [6]) it was 10000 nM; with HEK293 (setting [7]), 9960 nM.

Take `CCOc1ccc(-c2nnc([C@H]3C[C@H](NC(=O)c4cc[n+]([O-])c5cccnc45)C3)n2-c2ccccc2F)nc1` [Example 26, 4-((trans-3-(5-(5-ethoxypyridin-2-yl)-4-(2-fluorophenyl)-4H-1,2,4-triazol-3-yl)cyclobutyl)carbamoyl)-1,5-naphthyridine 1-oxide]: the IC50 at TNKS2 (setting [3]) came out at 2.6 nM; in the data set with HEK293 (setting [5]) it was 1.4 nM; with HEK293 (setting [4]) it was 1.4 nM.

As to `CCOc1ccc(-c2nnc([C@H]3C[C@H](NC(=O)c4cc[n+]([O-])c5cc(O)cnc45)C3)n2-c2ccccc2F)nc1` [Example 27, 4-((trans-3-(5-(5-ethoxypyridin-2-yl)-4-(2-fluorophenyl)-4H-1,2,4-triazol-3-yl)cyclobutyl)carbamoyl)-7-hydroxy-1,5-naphthyridine 1-oxide], the IC50 stood at 1.7 nM against TNKS2, 22 nM in the data set with HEK293 (setting [6]) and 22 nM in the data set on HEK293 (setting [7]).

For `CCOc1ccc(-c2nnc([C@H]3C[C@H](NC(=O)c4cc[n+]([O-])c5cc(OC)cnc45)C3)n2-c2ccccc2F)nc1` [Example 28, 4-((trans-3-(5-(5-ethoxypyridin-2-yl)-4-(2-fluorophenyl)-4H-1,2,4-triazol-3-yl)cyclobutyl)carbamoyl)-7-methoxy-1,5-naphthyridine 1-oxide], the IC50 on TNKS2 worked out at 3.5 nM; with HEK293 (setting [6]) it was 1.2 nM; in the data set with HEK293 (setting [7]) it was 1.2 nM.

Take `CCOc1ccc(-c2nnc([C@H]3C[C@H](NC(=O)c4cc[n+]([O-])c5cc(F)cnc45)C3)n2-c2ccccc2F)nc1` [Example 29, 4-((trans-3-(5-(5-ethoxypyridin-2-yl)-4-(2-fluorophenyl)-4H-1,2,4-triazol-3-yl)cyclobutyl)carbamoyl)-7-fluoro-1,5-naphthyridine 1-oxide]: the IC50 in the data set with HEK293 (setting [5]) and in the data set with HEK293 (setting [4]) was 2.8 nM throughout.
